# Results as given in patent publication US20220168304A1, “METHODS FOR TREATING CYSTIC FIBROSIS” (CHILDREN'S HOSPITAL MEDICAL CENTER, priority 2017, published 2022).
# Tests used:
# [1] = test system: mouse intestinal organoids; experiment: Fluid secretion by forskolin-induced swelling (FIS) of mouse intestinal organoids; assay type: cell-based; conditions: FIG. 4; 0.1 micromolar saracatinib; forskolin 10 μM, 30 min; FSK vs no FSK significant, p value of 0.01
# Procedure: (§1) Mouse intestinal organoids were cultured as described previously (DALTON et al., “New model of cystic fibrosis transmembrane conductance regulator proposes active channel-lik ? Inf Model (2012) Vol. 52, pp. 1842-1853). Human duodenal crypt isolation and enteroid expansion was performed as described previously (<<https://www.jove.com/video/52483/establishment-human-epithelial-enteroids-colonoids-from-whole-tissue>>) with some adaptations. Briefly, fresh biopsy is rinsed in ice-cold Dulbecco's Phosphate buffered saline without Ca^2+ and Mg^2+ (DPBS, Gibco), mounted and immersed in DPBS in a silica gel coated petri-dish using minutien pins with the mucosal side facing up.
# Isolation of intestinal spheres and measurement of fluid secretion were performed as described previously (MOON et al., “Compartmentalized accumulation of cAMP near complexes of multidrug resistance protein 4 (MRP4) and cystic fibrosis transmembrane conductance regulator (CFTR) contributes to drug-induced diarrhea.” J Biol Chem (2015) Vol. 290, pp. 11246-11257). Day 1-4 intestinal organoids were treated with 0.1-10 μM of the test compound for 24 h before stimulation of CFTR function using forskolin (10 μM). […]
# Fluid Secretion by forskolin-induced swelling (FIS) of mouse intestinal organoids (A) representative images (bar=20 micrometers) and (B) quantitation of fluid secretion.
# human duodenal organoids = experiment: Fluid secretion by forskolin-induced swelling (FIS) of human duodenal organoids; assay type: cell-based; conditions: FIG. 3; 0.1 micromolar saracatinib; forskolin 10 μM, 120 min; FSK vs no FSK significant, p value of 0.01
# Procedure: as §1
# Mucosa is gently scraped with curved forceps to remove villi and debris followed by 3-4 washes with DPBS. Crypts were dissociated using 2 mM EDTA (30 min, 4° C. with gentle shaking) followed by gentle scraping of the mucosa. The crypt suspension was filtered through a 150 μm nylon mesh twice and pelleted at 50×g, 4° C. The crypt pellet was resuspended in matrigel matrix (200 to 500 crypts/50 μl matrigel per well of a 24 well plate). […]
# Fluid Secretion by forskolin-induced swelling (FIS) of human duodenal organoids (A) representative images (bar=20 micrometers) and (B) quantitation of fluid secretion.
compound,measurement,setting,value
"CN1CCN(CCOc2cc(OC3CCOCC3)c3c(Nc4c(Cl)ccc5c4OCO5)ncnc3c2)CC1 [saracatinib, N-(5-chloro-1,3-benzodioxol-4-yl)-7-[2-(4-methyl-1-piperazinyl)ethoxy]-5-[(tetrahydro-2H-pyran-4-yl)oxy]-4-quinazolinamine]","Fluid secretion (forskolin-induced swelling, FIS)",[1],fluid secretion occurs when saracatinib is added
same,"Fluid secretion (forskolin-induced swelling, FIS)",human duodenal organoids,fluid secretion occurs when saracatinib is added
